Data published in patent US8815304B2, “Compositions and methods for promoting appetite suppression using alkali metals” (Ashberry International Limited, priority 2010, dated 2014).

How the values were obtained:
Type in all cases: in vivo, human
[1] = Weight loss trials in one subject (first to fifth and further trials, Examples 4-9); details: for weight lost during the trial: two months (61 days)
Excerpt: The therapeutic efficacy of a composition in accordance with the present invention has been tested herein.
These trials were not undertaken to lose weight as quickly as possible but rather they were undertaken with the recommendation by doctors to the subject(s) not to lose weight too quickly and to eat potassium rich foods, especially at night, instead of junk food.
As such, the aim of these trials was to have the subjects lose weight and stop the cravings for junk food with the aid of the compositions of this invention and use the enhanced energy and stimulation supplied from the compositions to change eating habits away from junk food thereby facilitating weight loss.
During a first trial, a subject was administered 300 mg of cesium chloride once per day in a glass of water every morning. The first trial lasted two months (61 days) and the subject (100 kg) lost ten kilograms during this time period, as follows:
In a second trial, the subject was administered 120 mg of lithium carbonate once per day with a glass of water every morning for two months (59 days). The subject reported after two weeks the stress of trying to diminish junk food intake was reduced.
In a third trial, the subject was administered 40 mg of lithium carbonate with a glass of water every morning for two months. The subject reported that the most difficult aspect was to stop the craving for junk food in the evening and the late afternoon.
In a fourth trial, the subject was administered 300 mg of rubidium chloride once per once day in a glass of water in the morning. This trial lasted two months (61 days), and the subject lost ten kilograms during this time period. The most difficult aspect reported was the urge to eat junk food for dinner and the cravings in the evening, which contributed to poor weight loss at the beginning of the trial (an option for people who cannot stop eating junk food at night would be to split the dosage and take half in the morning and half late in the afternoon or increase the dosage to 200 mg in the morning and 200 mg in the late afternoon).
In a fifth trial, the subject was administered 150 mg of rubidium chloride, 150 mg cesium chloride, and 40 mg of lithium carbonate once per day together in a glass of water in the morning. This trial lasted two months (61 days) and the subject lost ten kilograms during this time period. The most difficult aspect reported by the subject was the craving for junk food for dinner or late in the afternoon. This contributed to the little weight loss early in the study.
In further trials, the subject was administered lithium salts—lithium orotate, lithium aspartate, and lithium citrate (40 mg) with a glass of water in the morning. The subject reported similar cravings as noted above.

[2] = Example 1: alkali metal composition in water taken daily by a 100 kg person for two months; details: 300 mg in water, each over another two-month period
Method: A 100 kg person was administered a pharmaceutical composition of the invention. Cesium chloride ([…]), rubidium chloride ([…]) and lithium aspartate (40 milligrams) together were dissolved in one glass of water and ingested in the morning daily over a two month period.

[3] = Blind trial with two subjects (rubidium chloride vs powdered sugar placebo), Example 10; details: rubidium chloride 300 mg once per day
Method: In a blind trial with two subjects, a subject (66 kg) was administered 300 mg of rubidium chloride once per day in a glass of water in the morning for two months (61 days). The second subject was a person (98 kg) who was administered a placebo of powdered sugar once per day in a glass of water in the morning during the same two months.
The most difficult aspect reported by the subject was to stop eating junk food for dinner and to stop the craving for junk food in the evening, which is believed to be the reason for little weight loss at the beginning of the trial (a proposed solution for people who cannot stop eating at night would be to split the dosage of the 300 mg of rubidium chloride and take half in the morning and half late in the afternoon).
The aim of this trial was to have the subject lose weight and stop the craving for junk food with the aid of the composition. The enhanced energy and stimulation supplied from the composition that was tested to determine if it prompted a change in eating habits away from junk food, thereby facilitated weight loss. Both subjects stated there was a higher craving for junk food for them in the afternoon and evening.
The trial lasted two months and the subject lost no weight and found the powdered sugar caused no stimulation, while the subject lost 6.5 kilograms during this time period, as follows: […]

[4] = further trials, lithium salt 40 mg in the morning
[5] = further trials, lithium salt 40 mg in the morning, after two weeks
[6] = further trials, lithium salt 40 mg with a glass of water in the morning

SMILES: [Cl-].[Cs+] [cesium chloride]
- Weight ([1]; first trial, cesium chloride 300 mg once per day, day 1-9): 100 kg
- Weight ([1]; first trial, cesium chloride 300 mg once per day, day 10-13): 99 kg
- Weight ([1]; first trial, cesium chloride 300 mg once per day, day 14-15): 98 kg
- Weight ([1]; first trial, cesium chloride 300 mg once per day, day 16-23): 97 kg
- Weight ([1]; first trial, cesium chloride 300 mg once per day, day 24-34): 96 kg
- Weight ([1]; first trial, cesium chloride 300 mg once per day, day 35-41): 95 kg
- Weight ([1]; first trial, cesium chloride 300 mg once per day, day 42-47): 94 kg
- Weight ([1]; first trial, cesium chloride 300 mg once per day, day 48-52): 93 kg
- Weight ([1]; first trial, cesium chloride 300 mg once per day, day 53-55): 92 kg
- Weight ([1]; first trial, cesium chloride 300 mg once per day, day 56-58): 91 kg
- Weight ([1]; first trial, cesium chloride 300 mg once per day, day 59-61): 90 kg
- weight lost during the trial ([1]; first trial, cesium chloride 300 mg once per day, subject 100 kg): ten
- effect of the individual alkali metals ingested separately, compared with the combination [2]: worked as well and with the same sensation

SMILES: N[C@@H](CC(=O)[O-])C(=O)[O-].[Li+].[Li+] [lithium aspartate]
- feeling of stimulation (subject report) [1, 4]: not the feeling of stimulation as in the first and fourth trials
- stress of trying to diminish junk food intake (subject report) [1, 5]: decreased
- weight loss (in words) [1, 6]: Weight loss was recorded

SMILES: O=C([O-])[O-].[Li+].[Li+] [lithium carbonate]
- stress of trying to diminish junk food intake (subject report) ([1]; second trial, lithium carbonate 120 mg once per day, after two weeks): reduced
- Weight ([1]; second trial, lithium carbonate 120 mg once per day, day 1-14): 100 kg
- Weight ([1]; second trial, lithium carbonate 120 mg once per day, day 15-19): 99 kg
- Weight ([1]; second trial, lithium carbonate 120 mg once per day, day 20-27): 98 kg
- Weight ([1]; second trial, lithium carbonate 120 mg once per day, day 28-35): 97 kg
- Weight ([1]; second trial, lithium carbonate 120 mg once per day, day 36-39): 96 kg
- Weight ([1]; second trial, lithium carbonate 120 mg once per day, day 40-46): 95 kg
- Weight ([1]; second trial, lithium carbonate 120 mg once per day, day 47-52): 94 kg
- Weight ([1]; second trial, lithium carbonate 120 mg once per day, day 53-57): 93 kg
- Weight ([1]; second trial, lithium carbonate 120 mg once per day, day 58-59): 92 kg
- weight loss (in words) ([1]; second trial, lithium carbonate 120 mg once per day, two months (59 days)): Weight loss resulted
- feeling of stimulation (subject report) ([1]; third trial, lithium carbonate 40 mg every morning): not the feeling of stimulation as in the first trial
- stress of trying to reduce junk food intake (subject report) ([1]; third trial, lithium carbonate 40 mg every morning, after two weeks): reduced
- Weight ([1]; third trial, lithium carbonate 40 mg every morning, day 1-15): 100 kg
- Weight ([1]; third trial, lithium carbonate 40 mg every morning, day 16-25): 99 kg
- Weight ([1]; third trial, lithium carbonate 40 mg every morning, day 26-34): 98 kg
- Weight ([1]; third trial, lithium carbonate 40 mg every morning, day 35-41): 97 kg
- Weight ([1]; third trial, lithium carbonate 40 mg every morning, day 42-48): 96 kg
- Weight ([1]; third trial, lithium carbonate 40 mg every morning, day 49-53): 95 kg
- Weight ([1]; third trial, lithium carbonate 40 mg every morning, day 54-57): 94 kg
- Weight ([1]; third trial, lithium carbonate 40 mg every morning, day 58-60): 93 kg
- Weight ([1]; third trial, lithium carbonate 40 mg every morning, day 61): 92 kg
- weight loss (in words) ([1]; third trial, lithium carbonate 40 mg every morning, two months): Weight loss also resulted

SMILES: O=C([O-])CC(O)(CC(=O)[O-])C(=O)[O-].[Li+].[Li+].[Li+] [lithium citrate]
- feeling of stimulation (subject report) [1, 4]: not the feeling of stimulation as in the first and fourth trials
- stress of trying to diminish junk food intake (subject report) [1, 5]: decreased
- weight loss (in words) [1, 6]: Weight loss was recorded

SMILES: O=C([O-])c1cc(=O)[nH]c(=O)[nH]1.[Li+] [lithium orotate]
- feeling of stimulation (subject report) [1, 4]: not the feeling of stimulation as in the first and fourth trials
- stress of trying to diminish junk food intake (subject report) [1, 5]: decreased
- weight loss (in words) [1, 6]: Weight loss was recorded

SMILES: [Cl-].[Rb+] [rubidium chloride]
- Weight ([1]; fourth trial, rubidium chloride 300 mg once per day, day 1-10): 102 kg
- Weight ([1]; fourth trial, rubidium chloride 300 mg once per day, day 11-15): 101 kg
- Weight ([1]; fourth trial, rubidium chloride 300 mg once per day, day 16-23): 100 kg
- Weight ([1]; fourth trial, rubidium chloride 300 mg once per day, day 24-29): 99 kg
- Weight ([1]; fourth trial, rubidium chloride 300 mg once per day, day 30-35): 98 kg
- Weight ([1]; fourth trial, rubidium chloride 300 mg once per day, day 36-40): 97 kg
- Weight ([1]; fourth trial, rubidium chloride 300 mg once per day, day 41-45): 96 kg
- Weight ([1]; fourth trial, rubidium chloride 300 mg once per day, day 46-50): 95 kg
- Weight ([1]; fourth trial, rubidium chloride 300 mg once per day, day 51-54): 94 kg
- Weight ([1]; fourth trial, rubidium chloride 300 mg once per day, day 55-59): 93 kg
- Weight ([1]; fourth trial, rubidium chloride 300 mg once per day, day 60-61): 92 kg
- weight lost during the trial ([1]; fourth trial, rubidium chloride 300 mg once per day): ten
- effect of the individual alkali metals ingested separately, compared with the combination [2]: worked as well and with the same sensation
- weight lost during the trial ([3]; subject (66 kg), two months (61 days)): 6.5 kilograms
- craving for junk food (subject report) ([3]; subject): less craving for junk food than normal even after the first day
- energy and activity during the day (subject report) ([3]; subject): much more energy than before
- stimulation from the medication (subject report) ([3]; subject): very, very strong
- Weight ([3]; subject, day 1-5): 66 kg
- Weight ([3]; subject, day 6-9): 65.5 kg
- Weight ([3]; subject, day 10-12): 65 kg
- Weight ([3]; subject, day 13-18): 64 kg
- Weight ([3]; subject, day 19-28): 63 kg
- Weight ([3]; subject, day 29-30): 64 kg
- Weight ([3]; subject, day 31-32): 63.5 kg
- Weight ([3]; subject, day 33-34): 63 kg
- Weight ([3]; subject, day 35-43): 62 kg
- Weight ([3]; subject, day 44-51): 61 kg
- Weight ([3]; subject, day 52-55): 60.5 kg
- Weight ([3]; subject, day 56-59): 60 kg
- Weight ([3]; subject, day 60-61): 59.5 kg
